Data set [1] deals with A1 and A2A receptors. Put plainly: Estimated occupancy of A1 and A2A receptors at the concentrations used. The conditions noted are these: at the concentrations used (300 nM MRS 1097, 100 nM MRS 1191, 100 nM MRS 1523).
Data set [2] has as its system HCE (human ciliary epithelial) cell line, NPE cells. The data set can be described thus: Cell volume (shrinkage) of NPE cells in isosmotic solution, Coulter Counter, 5 μM gramicidin. The class given is cell-based. The conditions noted are these: for effect of A3 antagonist on adenosine-stimulated isotonic shrinkage: 300 nM MRS-1097, 100 nM MRS-1191, 100 nM MRS-1523, 10 μM adenosine; for effect of A3 antagonist on IB-MECA-stimulated isotonic shrinkage: 2 min preincubation, MRS-1097 300 nM, MRS-1191 100 nM, 100 nM IB-MECA; for effect of A3 antagonist on shrinkage triggered by 3 μM CGS-21680: 100 nM MRS-1191 preincubation. As for the experimental part: A 0.5-ml aliquot of the HCE cell suspension in DMEM was added to 20 ml of each test solution, which contained (in mM): 110.0 NaCl, 15.0HEPES [4-(2-hydroxyethyl)-1-piperazineethanesulfonic acid], 2.5 CaCl2, 1.2 MgCl2, 4.7 KCl, 1.2 KH2PO4, 30.0 NaHCO3, and 10.0 glucose, at a pH of 7.4 and osmolality of 298-305 mOsm. Parallel aliquots of cells were studied on the same day. One aliquot usually served as a control, and the others were exposed to different experimental conditions at the time of suspension. The same amount of solvent vehicle (dimethylformamide, DMSO or ethanol) was always added to the control and experimental aliquots. The sequence of studying the suspensions was varied to preclude systematic time-dependent artifacts (Civan et al., Exp. Eye Res. 54:181-191, 1992).
Cell volumes of isosmotic suspensions were measured with a Coulter Counter (model ZBI-Channelyzer II), using a 100-μm aperture (Civan et al., supra., 1994). As previously described (Wax et al., supra., 1993), the cell volume (vC) of the suspension was taken as the peak of the distribution function. Cell shrinkage was fit as a function of time (t) to a monoexponential function:
vC=v∞+(v0−v∞)−[e^−(t−t^0^)/τ] {1}
where v∞ is the steady-state cell volume, v0 is the cell volume at the first point (t0) of the time course to be fit, and τ is the time constant of the shrinkage. For purposes of data reduction, the data were normalized to the first time point, taken to be 100% isotonic volume. Fits were obtained by nonlinear least-squares regression analysis, permitting both v∞and τ to be variables.
In order to differentiate among these receptors, the experiments were repeated in the present study using a series of agonists and antagonists selective for these receptors. As we wished to identify the effects of these receptors specifically on Cl^− channels, 5 μM gramicidin D was included in all solutions to eliminate any potential contribution from K^+ channels. This ionophore readily partitions into plasma membranes to form a cation-selective pore, and is widely used for studying volume regulation (Hoffmann et al., in Interaction of Cell Volume and Cell Function, Lang et al., eds., Springer, Heidelberg, Germany, pp. 188-248, (ACEP Series 14), 1993)). Under these conditions, release of cell Cl^− becomes the rate-limiting factor in both hypo-(Civan et al., Exp. Eye Res. 54:181-191, 1992) and isoosmotic cell shrinkage (Carre et al., supra., 1997).

Data set [3] deals with human A2 receptors. The settings on record: read-out: Ki for binding to human A2 receptors; cited from earlier work.
The nature of data set [4]: Oxidation of 1-methyl-1,4-dihydropyridine in rat brain homogenate. The class given is in vitro ADME. The conditions noted are these: rat brain homogenate supernatant, pH 7.4, 37 C, read-out: t½ of oxidation to pyridinium salt 11. As for the experimental part: The rat brain homogenate was prepared by the following method. One rat ([…]) was killed and the brain (weighing 2.26 g) was removed, and homogenized in 12 mL PBS (Biofluids, Inc., 1×pH 7.4). The homogenate was centrifuged at 12,000×rpm, and the supernatant was used. 5 mg of 24 dissolved in 0.2 mL of DMSO was mixed with 10 mL of brain homogenate (initial concentration of 1.27 mM), which was previously equilibrated to 37° C. in a water bath incubator, and shaking was continued at that temperature. Aliquots of 500 μL were withdrawn at 2, 4, 8, 16, 32, 64, 128, 256, 768 min (2×each) from the test medium, added immediately to 3 mL of ice-cold ethyl ether, shaken vigorously, and placed in a freezer. When all samples had been collected, and the ether layer of each sample was separated. After evaporation of the ether, each residue was dissolved in 200 μL methanol, filtered through Whatman 1 filter paper and analyzed by HPLC.
Pyridinium salt 11 could be generated through oxidation of the corresponding reduced precursor, 1-methyl-2,4-diethyl-3-(ethylsulfanylcarbonyl)-5-ethyloxycarbonyl-6-phenyl-1,4-dihydropyridine, 24. The conversion of 24 to 11 by chemical means (iodine in nitromethane) and during incubation at 37 C with rat brain membranes, to simulate in vivo conditions, was studied. The chemical conversion occurred readily, and the time course of the biochemical oxidation was recorded . […]

The target in data set [5] is T1, A2A receptors (Rattus norvegicus, UniProt P30543).
T1 construct: to A2A receptors from rat striatal membranes; from tissue; host or cells: rat striatal membranes
Put plainly: Radioligand binding, [3H]CGS 21680, rat striatal membranes. The conditions noted are these: at 100 μM. As for the experimental part:
(§1) Radioligand binding studies. Binding of [^3H]R-N^6-phenylisopropyladenosine ([^3H]R-PIA) to A1 receptors from rat cerebral cortex membranes and of [^3H]-2-[4-[(2-carboxyethyl)phenyl]ethylamino]-5′-N-ethylcarbamoyladenosine ([^3H]CGS 21680) to A2A receptors from rat striatal membranes was performed as described previously (Schwabe et al., Naunyn Schmiedeberg Arch. Pharmacol. 313:179-187, 1980; Jarvis et al., J. Pharmacol. Exp. Ther. 251:888-893, 1989) Adenosine deaminase (3 units/mL) was present during the preparation of the brain membranes, in a pre-incubation of 30 min at 30° C., and during the incubation with the radioligands. Nonspecific binding was determined in the presence of 10 μM (A1 receptors) or 20 μM (A2A receptors)2-chloroadenosine.
(§2) All non-radioactive compounds were initially dissolved in DMSO, and diluted with buffer to the final concentration, where the amount of DMSO never exceeded 1%. Incubations were terminated by rapid filtration over Whatman GF/B filters, using a Brandell cell harvester (Brandell, Gaithersburg, MD). The tubes were rinsed three times with 3 mL buffer each.
(§3) At least five different concentrations of competitor, spanning 3 orders of magnitude adjusted appropriately for the IC50 of each compound, were used.

The target in data set [6] is T2, human A3 receptor (Homo sapiens, UniProt P0DMS8).
T2 sequence (P0DMS8 1-318): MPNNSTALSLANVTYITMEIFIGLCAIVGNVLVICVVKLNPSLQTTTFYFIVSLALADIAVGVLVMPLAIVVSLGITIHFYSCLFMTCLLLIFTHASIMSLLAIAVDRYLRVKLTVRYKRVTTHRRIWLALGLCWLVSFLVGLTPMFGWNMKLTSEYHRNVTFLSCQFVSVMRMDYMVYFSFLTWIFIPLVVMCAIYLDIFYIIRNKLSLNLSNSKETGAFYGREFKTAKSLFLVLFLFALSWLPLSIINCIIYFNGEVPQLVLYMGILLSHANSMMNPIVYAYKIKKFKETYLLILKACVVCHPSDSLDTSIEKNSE
Put plainly: Radioligand binding, [125I]AB-MECA, HEK-293 cell membranes. Details: host or cells: HEK-293. The settings on record: read-out: Ki(hA3). As for the experimental part:
Natl. Acad. Sci. […] Natl. Acad. Sci. U.S.A. 89:7432-7436, 1992) was performed as described at 4° C. (Olah et al., Mol. Pharmacol. 45:978-982, 1994). The assay medium consisted of a buffer containing 10 mM Mg^2+, 50 mM Tris, 3 units/mL adenosine deaminase, and 1 mM EDTA, at pH 8.0 (4° C.). […] Incubations were terminated by rapid filtration over Whatman GF/B filters, using a Brandell cell harvester (Brandell, Gaithersburg, MD). The tubes were rinsed three times with 3 mL buffer each. At least five different concentrations of competitor, spanning 3 orders of magnitude adjusted appropriately for the IC50 of each compound, were used. IC50 values, calculated with the nonlinear regression method implemented in the InPlot program (Graph-PAD, San Diego, Calif.), were converted to apparent Ki values using the Cheng-Prusoff equation (Cheng et al., Biochem.

For data set [7], the target named is T3, A1 receptors (Rattus norvegicus, UniProt P25099).
T3 construct: A1 receptors from rat cerebral cortex membranes; from tissue; host or cells: rat cerebral cortex membranes
T3 sequence (P25099 1-326): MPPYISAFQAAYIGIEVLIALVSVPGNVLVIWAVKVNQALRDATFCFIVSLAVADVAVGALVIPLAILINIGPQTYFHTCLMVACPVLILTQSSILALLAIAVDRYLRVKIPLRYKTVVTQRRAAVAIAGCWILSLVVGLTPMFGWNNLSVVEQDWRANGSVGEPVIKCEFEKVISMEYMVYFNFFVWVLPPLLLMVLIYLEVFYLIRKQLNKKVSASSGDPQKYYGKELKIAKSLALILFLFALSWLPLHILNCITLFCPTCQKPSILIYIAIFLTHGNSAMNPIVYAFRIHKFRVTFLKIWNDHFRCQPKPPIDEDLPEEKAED
Put plainly: Radioligand binding, [3H]R-PIA, rat cerebral cortex membranes. As for the experimental part:
as §1, §2, §3

Data set [8] has as its system HCE (human ciliary epithelial) cell line, NPE cells. The settings on record: read-out: EC50 for isoosmotic shrinkage of cultured human NPE cells; cited from earlier work.
The target of data set [9] is T4, recombinant human A2B receptors (Homo sapiens, UniProt P29275).
T4 sequence (P29275 1-332): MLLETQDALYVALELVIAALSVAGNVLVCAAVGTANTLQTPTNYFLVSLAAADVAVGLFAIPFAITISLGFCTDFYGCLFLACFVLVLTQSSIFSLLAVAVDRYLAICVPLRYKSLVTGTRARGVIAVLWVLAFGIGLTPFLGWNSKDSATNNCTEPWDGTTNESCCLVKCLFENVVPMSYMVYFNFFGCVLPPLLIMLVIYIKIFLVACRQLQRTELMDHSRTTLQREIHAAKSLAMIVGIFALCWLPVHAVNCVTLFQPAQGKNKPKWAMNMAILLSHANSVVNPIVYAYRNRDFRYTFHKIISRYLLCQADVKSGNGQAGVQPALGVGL
The data set can be described thus: Radioligand binding to recombinant human A2B receptors. The conditions noted are these: at 10 μM.

Data set [10] deals with T2, human A3 receptor. The settings on record: read-out: Ki for binding to human A3 receptors; cited from earlier work.

“Also recorded” adds a separate entry of the source. Read-outs that look alike come from different tables or passages of the source.

T1 sequence (P30543 whole entry): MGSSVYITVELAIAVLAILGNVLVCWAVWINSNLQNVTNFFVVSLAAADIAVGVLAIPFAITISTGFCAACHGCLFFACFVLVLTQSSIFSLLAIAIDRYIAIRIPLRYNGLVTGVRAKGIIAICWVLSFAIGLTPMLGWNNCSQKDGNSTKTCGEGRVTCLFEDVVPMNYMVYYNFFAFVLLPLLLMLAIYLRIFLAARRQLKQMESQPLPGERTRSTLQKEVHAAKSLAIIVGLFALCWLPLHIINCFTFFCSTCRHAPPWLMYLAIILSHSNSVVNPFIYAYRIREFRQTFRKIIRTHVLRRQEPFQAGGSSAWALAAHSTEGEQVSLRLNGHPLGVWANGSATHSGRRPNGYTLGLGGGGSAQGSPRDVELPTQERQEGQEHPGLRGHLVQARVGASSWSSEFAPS

For orientation: Ki means the dissociation constant of the complex between target and ligand, obtained from inhibition or displacement. With “3-ethyl 5-benzyl-2-methyl-6-phenyl-4-styryl-1,4-(±)-dihydropyridine-3,5-dicarboxylate [MRS-1097]”, the “share of the A1 and A2A receptors that could have been occupied” value in data set [1] was under 20%. Moreover, the “effect of A3 antagonist on adenosine-stimulated isotonic shrinkage” value is reported as “prevented the characteristic shrinkage” in [2] and “blocked the shrinkage” in [2] (listed as MRS 1097). Besides, the “effect of A3 antagonist on IB-MECA-stimulated isotonic shrinkage” value in data set [2] is reported as “prevented shrinkage”; in data set [2] (listed as MRS 1097), “blocked the isoomotic shrinkage; also recorded: prevented the subsequent response; also recorded: prevent the shrinkage”. In addition, the Ki in data set [3] was 4770 nM.
As for `CCOC(=O)C1=C(c2ccccc2)N(C)C(CC)=C(C(=O)SCC)C1CC` (stereo not drawn) [Compound 24, 1-Methyl-2,4-diethyl-3-(ethylsulfanylcarbonyl)5-ethyloxycarbonyl-6-phenyl-1,4-dihydropyridine], the half-life at 1.27 mM in data set [4] is about 47 min. Also, the “percent displacement of specific radioligand binding at rat A2A receptors” value in [5] is recorded as 48±7%. The results for the Ki in data set [6] and in data set [7] were 379 ± 122 nM and 28400 ± 2500 nM, respectively.
A word on the EC50: it is the concentration that produces a half-maximal response. As to `Nc1ncnc2c1ncn2[C@@H]1O[C@H](CO)[C@@H](O)[C@H]1O` [adenosine], in data set [8], the EC50 was 3000 to 10000 nM.
With `CCOC(=O)C1=C(C)NC(c2ccccc2)=C(C(=O)OCc2ccccc2)C1C#Cc1ccccc1` (racemic) [MRS-1191, 3-ethyl 5-benzyl-2-methyl-6-phenyl-4-phenylethynyl-1,4-(±)-dihydropyridine-3,5-dicarboxylate], the “displacement of radioligand binding to recombinant human A2B receptors” value in data set [9] is given as “did not displace radioligand binding”. For the same compound, in [2], the “effect of A3 antagonist on shrinkage triggered by 3 μM CGS-21680” value is “abolished this effect; also recorded: blocked”, the “effect of A3 antagonist on adenosine-stimulated isotonic shrinkage” value is given as “prevented the characteristic shrinkage” and the “effect of A3 antagonist on IB-MECA-stimulated isotonic shrinkage” value was “prevented characteristic shrinkage”. Also, in data set [2] (listed as MRS 1191), the “effect of A3 antagonist on shrinkage triggered by 3 μM CGS-21680” value is “prevented this shrinkage”, the “effect of A3 antagonist on adenosine-stimulated isotonic shrinkage” value was “blocked the shrinkage” and the “effect of A3 antagonist on IB-MECA-stimulated isotonic shrinkage” value is recorded as “prevent the shrinkage”. In [2] (100 nM antagonist alone), the “effect on cell volume in the absence of IB-MECA” value is listed as “did not affect cell volume”. Besides, in data set [3], the Ki was over 100000 nM.
As to `CCCOC(=O)c1c(-c2ccccc2)nc(CC)c(C(=O)SCC)c1CCC` [MRS-1523], the “effect of A3 antagonist on adenosine-stimulated isotonic shrinkage” value is given as “prevented the characteristic shrinkage” in data set [2] and “eliminated the actions of adenosine; also recorded: blocked the shrinkage” in data set [2] (listed as MRS 1523). The figures for the Ki in [10] and in [3] were 19 nM and 2050 nM, respectively.

The record behind these values is patent publication US6528516B1, “Methods for reducing intraocular pressure using A3 adenosine receptor antagonists” (Trustees of the University of Pennsylvania, The Center for …, priority 1998, dated 2003).
